{
  "source": "patent US20030073608A1",
  "about": "(priority 2001, published 2003)",
  "origin": "cited, not measured here",
  "key": {"[1]": {"test_system": "ventral tegmental dopamine cells (A10)", "settings": "limbic-related A10 cells; Bymaster et al., Eur. J. Pharmacol. 1998"}, "[2]": {"test_system": "substantia nigra dopamine cells (A9)", "settings": "Bymaster et al., Eur. J. Pharmacol. 1998"}},
  "data": [
    {"smiles": "CCCSc1nsnc1[C@H]1CN2CCC[C@H]1C2", "note": "[PTAC]", "values": [
      {"measurement": "antagonism of electrophysiological responses in ventral tegmental dopamine cells (A10)", "setting": "[1]", "value": "antagonizes electrophysiological responses"},
      {"measurement": "antagonism of substantia nigra dopamine cells (A9)", "setting": "[2]", "value": "does not antagonize"}
    ]}
  ]
}
